Data taken from patent US9771430B2, “Method of treating a metabolic disorder induced by obesity in a subject in need thereof by administering MK2/3 inhibitors” (THE TRUSTEES OF COLUMBIA UNIVERSITY IN THE CITY OF NEW YORK, priority 2011, dated 2017).

Columns and labels:
cytosolic free calcium = test: Calcium mobilization in primary hepatocytes (Fura-2 imaging); format: cell-based, mouse
Experimental: Mouse primary hepatocytes were plated on glass coverslips and loaded with 5 μM Fura-2 acetoxymethyl ester (Molecular Probes) in the presence of 0.025% (w/v) pluronic F127 (Sigma-Aldrich) in Media 199 (Mediatech) for 30 minutes. […] The ratio of fluorescence intensity at the two excitation wavelengths was calculated after subtracting background fluorescence. [Ca2+]I (cytosolic free calcium concentration) was calculated using a Fura-2 calcium imaging calibration kit (Invitrogen). Images were collected and analyzed using the MetaFluor software package (Universal Imaging Corp.). Graphs represent average responses from groups of 30-40 individual cells from representative single experiments. Bar graphs represent average responses (fold over average baseline) from 150-200 cells per condition. All experiments were repeated at least three times with similar results.

CRTC2 = CRTC2 dephosphorylation and nuclear translocation in primary hepatocytes; format: cell-based, mouse; settings: inhibitor pre-treatment 1 h, glucagon 100 nM
Experimental: (§1) HEK293T (ATCC) cells were cultured in DMEM containing 10% FBS (HyClone), […] penicillin-streptomycin. Mouse primary hepatocytes were isolated and cultured as previously described (18). Cellular fractionation studies were conducted as previously reported (18). For reporter studies, Ad-CRE-luc infected hepatocytes (1 pfu per cell) were exposed to glucagon (Gcg, 100 nM) for 2˜4 h. For cyclosporine A (CsA, 10 μM) or okadaic acid (OA, 100 nM) or cell permeable calcineurin autoinhibitory peptide (10 μM) or CN585 (100 μM) or Calyculin A (10 nM) or Xestospongin C (Xc, 2 μM) or H89 (30 μM) or BAPTA (50 μM) inhibition, hepatocytes were pre-treated with the inhibitors for one hour. Luciferase activities were normalized to β-galactosidase activity from adenoviral-encoded RSV β-gal. Calcineurin activity (test kit from Enzo Life Sciences) and cellular cAMP levels (test kit from Cayman Chemical Company) were measured according to manufacturer's instructions.
Immunoblot, immunoprecipitation, and immunostaining assays were performed as described (18). CRTC2, pCREB (Ser133), CREB, pAKT (Thr308), AKT, tubulin, HA, and FLAG antibodies were previously described (18). The antibodies anti-InsP3R1 (A302-158A) and InsP3R3 (A302-160A) were purchased from Bethyl Laboratories, anti-InsP3R2 (ab77838) from Abcam, anti-Calcineurin (610260) from BD Biosciences, anti-GRP78 (ADI-SPA-826-F) from Enzo Life Sciences, anti-phospho-PKA substrate (RRXS/T, 9624), anti-phospho-AKT substrate (RXXS/T, 9614) and CRTC2 (pS171, 2892) from Cell Signaling. CRTC2 (pS275) antibody was employed as described (19).

IP3R = test: IICR in freshly isolated peritoneal cavity macrophages of Xestospongin C-treated ob/ob mice; format: in vivo, mouse; settings: treatment of ob/ob mice
Source text: FIGS. 50A-M. The role of IP3R in obesity/insulin resistance induced hyperglycemia and gluconeogenesis. FIG. 50A. Evidence that Xestospongin C Treatment of ob/ob Mice Inhibits IP3R Assay of IICR in Freshly Isolated Peritoneal Cavity Macrophages. FIG. 50B-E. Inhibition of IP3R Reduces Fasting Blood Glucose Levels in ob/ob Mice. FIG. 50F. Inhibition of IP3R Reduces Hepatic Expression of PEPCK, G6Pase, and PGC1α in ob/ob. FIG. 50G-I. Inhibition of IP3R Reduces Expression of PEPCK, G6Pase, and PGC1α in Palmitate-Treated Hepatocytes as a Model of ER Stress and Insulin Resistance. FIG. 50J-K. Inhibition of IP3R Reduces Expression of G6Pase and PEPCK in Akt-Inhibited Hepatocytes as a Model of Insulin Resistance. FIG. 50L. IP3R Activity is Required for Forskolin-Induced TORC2 Dephosphorylation. FIG. 50M. IP3R Activation is Required for TORC2 Nuclear Retention.

calcineurin = test: Calcineurin activity in primary hepatocytes; format: cell-based, mouse
Experimental: as §1

[1] = Fasting glucose in C57BL/6J mice treated with Xestospongin C; format: in vivo, mouse
Source text: FIGS. 49A-S. The role of IP3R in forskolin/glucagon-induced G6Pase/PEPCK in cultured hepatocytes and in fasting blood glucose in vivo. FIG. 49 A,B. FSK-Induced G6Pase and PEPCK is Calcium-Dependent. FIG. 49C-D. IP3R Activity is Required for Forskolin- and Glucagon-Induced G6Pase and PEPCK (FAO rat hepatocyte cell line). FIG. 49E-F. IP3R Activity is Required for Forskolin-Induced G6Pase and PEPCK (primary murine hepatocytes). FIG. 49G-H. IP3R1 Anti-Sense Oligonucleotide Suppresses Forskolin-Induced G6Pase and PEPCK (primary murine hepatocytes). FIG. 49I. Forskolin Activates IP3R Activity in FAO Hepatocytes (Inositol/ATP-Induced Calcium Release Assay). FIG. 49J. The PKA Inhibitor H89 Suppresses Forskolin-Induced IP3R Activation. FIG. 49K-L. IP3R Activity is Required for Forskolin-Induced PGC1a. FIG. 49M-N. Calcineurin Inhibitory Peptide Suppresses Forskolin-Induced G6Pase and PEPCK. FIG. 49O. IP3R Activity is Required for Forskolin-Induced Calcineurin Activation. FIG. 49P-Q. IP3R Activity is Required for Forskolin-Induced TORC2 Dephosphorylation and Nuclear Localization. FIG. 49R. TORC2 Transduction Partially Restores Forskolin-Induced G6Pase in IP3R-Inhibited Hepatocytes. FIG. 49S. Xestospongin C Treatment Reduces Fasting Glucose Levels in C57BL/6J Mice.

C1CCC[C@H]2CCCN3CC[C@@H](CCCCCC[C@@H]4CCCN5CC[C@@H](CC1)O[C@@H]45)O[C@@H]23 [Xestospongin C]
cytosolic calcium mobilization in response to glucagon (and forskolin) (cytosolic free calcium; co-/pre-treatment with inhibitor): disrupted
glucagon-induced dephosphorylation (and nuclear translocation) of CRTC2 (CRTC2): blocked
IP3R (IICR) in peritoneal cavity macrophages (IP3R): Inhibits
calcineurin activation in response to glucagon and forskolin (calcineurin): disrupted
Fasting Glucose Levels [1]: Reduces

glucagon: hormone used to stimulate hepatocytes and mice
cellular free calcium (cytosolic free calcium; exposure of primary hepatocytes to glucagon): rapid increase
